Measurements from patent US20170334899A1, “AMINO-SUBSTITUTED ISOTHIAZOLES” (Bayer Pharma Aktiengesellschaft, priority 2014, published 2017).

Columns and labels:
[1] = biological target: T1, catalytic domain of human Bub1 (amino acids 704-1085) (Homo sapiens, UniProt O43683); assay: Bub1 kinase assay (TR-FRET); assay type: biochemical; conditions: 10 μM ATP, avg, read-out: Bub1 avg (IC50 [mol/l])
T1 construct: catalytic domain of human Bub1 (amino acids 704-1085); His6 (N); made in house; host or cells: insect cells (Hi5)
Outline: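 Readout is the 665/620 nm TR-FRET ratio from anti-phosphoserine antibody, Eu-labelled anti-mouse IgG and streptavidin-XL665, scaled between no-enzyme and uninhibited controls. Reaction: 1 μM biotinylated peptide, 10 μM ATP, 60 min, 22 °C, after 15 min compound preincubation with His6-Bub1 (704-1085, insect-expressed, ~200 ng/ml).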

[2] = biological target: T2, CDK2/CycE (Homo sapiens, UniProt P24941); assay: CDK2/CycE kinase assay (TR-FRET); assay type: biochemical; conditions: avg, read-out: CDK2 avg (IC50 [mol/l])
T2 construct: GST; purchased ProQinase GmbH (Freiburg, Germany); host or cells: insect cells (Sf9)
Outline: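 GST-tagged human CDK2 and CycE from Sf9 cells, preincubated 15 min with compound, then 25 min at 22° C. with 10 μM ATP and 0.75 μM biotinylated Rb-derived peptide (final). Phospho-substrate read by TR-FRET (anti-pRB pSer807/pSer811, Eu anti-mouse IgG, streptavidin-XL665), 665/620 nm ratio, normalised to no-inhibitor and no-enzyme controls.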

T1 sequence (O43683 704-1085): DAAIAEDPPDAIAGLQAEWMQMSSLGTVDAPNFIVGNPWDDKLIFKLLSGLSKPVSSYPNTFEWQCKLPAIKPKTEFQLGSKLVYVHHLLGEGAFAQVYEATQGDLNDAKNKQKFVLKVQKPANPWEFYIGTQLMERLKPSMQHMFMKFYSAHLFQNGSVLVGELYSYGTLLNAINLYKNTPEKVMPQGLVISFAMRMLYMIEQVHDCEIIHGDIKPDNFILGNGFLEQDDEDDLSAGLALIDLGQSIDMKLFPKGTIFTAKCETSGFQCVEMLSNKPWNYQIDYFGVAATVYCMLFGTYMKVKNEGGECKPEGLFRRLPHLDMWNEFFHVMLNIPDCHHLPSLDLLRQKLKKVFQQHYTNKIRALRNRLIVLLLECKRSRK

| Compound | IC50 [1] | IC50 [2] |
| --- | --- | --- |
| Cc1nsc(Nc2cnc(C(F)(F)F)cn2)c1C(=O)Nc1ccc(O[C@H]2CCN(CC(F)F)C[C@@H]2F)nc1 [Example 362] | 14 µM | > 20 µM |
| Cc1nsc(Nc2cnc(C(F)(F)F)cn2)c1C(=O)Nc1ccc(O[C@H]2CCN(CC(F)(F)F)C[C@@H]2F)nc1 [Example 363, N-(6-{[(3S,4S)-3-fluoro-1-(2,2,2-trifluoroethyl)piperidin-4-yl]oxy}pyridin-3-yl)-3-methyl-5-{[5-(trifluoromethyl)pyrazin-2-yl]amino}-1,2-thiazole-4-carboxamide] | > 20 µM | > 20 µM |
| Cc1nsc(Nc2cnc(C(F)(F)F)cn2)c1C(=O)Nc1ccc(O[C@H]2CCN(CCC(F)(F)F)C[C@@H]2F)nc1 [Example 364, N-(6-{[(3S,4S)-3-fluoro-1-(3,3,3-trifluoropropyl)piperidin-4-yl]oxy}pyridin-3-yl)-3-methyl-5-{[5-(trifluoromethyl)pyrazin-2-yl]amino}-1,2-thiazole-4-carboxamide] | > 20 µM | > 20 µM |
| CCN1CC[C@H](Oc2ccc(NC(=O)c3c(C)nsc3Nc3cnc(C(F)(F)F)cn3)cn2)[C@@H](F)C1 [Example 365, N-(6-{[(3S,4S)-1-ethyl-3-fluoropiperidin-4-yl]oxy}pyridin-3-yl)-3-methyl-5-{[5-(trifluoromethyl)pyrazin-2-yl]amino}-1,2-thiazole-4-carboxamide] | 16 µM | > 20 µM |
| Cc1nsc(Nc2cnc(C(F)(F)F)cn2)c1C(=O)Nc1ccc(O[C@@H]2CCN(CC(F)(F)F)C[C@H]2F)nc1 [Example 367, N-(6-{[(3R,4R)-3-fluoro-1-(2,2,2-trifluoroethyl)piperidin-4-yl]oxy}pyridin-3-yl)-3-methyl-5-{[5-(trifluoromethyl)pyrazin-2-yl]amino}-1,2-thiazole-4-carboxamide] | > 20 µM | > 20 µM |
| Cc1nsc(Nc2cnc(C(F)(F)F)cn2)c1C(=O)Nc1ccc(O[C@@H]2CCN(CCC(F)(F)F)C[C@H]2F)nc1 [Example 368, N-(6-{[(3R,4R)-3-fluoro-1-(3,3,3-trifluoropropyl)piperidin-4-yl]oxy}pyridin-3-yl)-3-methyl-5-{[5-(trifluoromethyl)pyrazin-2-yl]amino}-1,2-thiazole-4-carboxamide] | > 20 µM | > 20 µM |
| CCN1CC[C@@H](Oc2ccc(NC(=O)c3c(C)nsc3Nc3cnc(C(F)(F)F)cn3)cn2)[C@H](F)C1 [Example 369, N-(6-{[(3R,4R)-1-ethyl-3-fluoropiperidin-4-yl]oxy}pyridin-3-yl)-3-methyl-5-{[5-(trifluoromethyl)pyrazin-2-yl]amino}-1,2-thiazole-4-carboxamide] | > 20 µM | > 20 µM |
| CCCN1CC[C@H](Oc2ccc(NC(=O)c3c(C)nsc3Nc3cnc(C(F)(F)F)cn3)cn2)[C@@H](F)C1 [Example 370, N-(6-{[(3S,4S)-3-fluoro-1-propylpiperidin-4-yl]oxy}pyridin-3-yl)-3-methyl-5-{[5-(trifluoromethyl)pyrazin-2-yl]amino}-1,2-thiazole-4-carboxamide] | > 20 µM | > 20 µM |
| CCCN1CC[C@@H](Oc2ccc(NC(=O)c3c(C)nsc3Nc3cnc(C(F)(F)F)cn3)cn2)[C@H](F)C1 [Example 371, N-(6-{[(3R,4R)-3-fluoro-1-propylpiperidin-4-yl]oxy}pyridin-3-yl)-3-methyl-5-{[5-(trifluoromethyl)pyrazin-2-yl]amino}-1,2-thiazole-4-carboxamide] | > 20 µM | > 20 µM |
| Cc1nsc(Nc2cnc(C(F)(F)F)cn2)c1C(=O)Nc1ccc(N2CCN(CC(F)F)CC2)cn1 [Example 372, N-{5-[4-(2,2-difluoroethyl)piperazin-1-yl]pyridin-2-yl}-3-methyl-5-{[5-(trifluoromethyl)pyrazin-2-yl]amino}-1,2-thiazole-4-carboxamide] | > 20 µM | > 20 µM |
